Assay results from a compilation of properties of binary mixtures (doi:10.1007/s10953-022-01154-2).

Assay: xn = mol fraction of the nth substance listed
Conditions: 101.3 kPa, x2 = 0

CC1COC(=O)O1 (stereo not drawn) + CC[n+]1ccn(C)c1.N#C[S-]
Conditions | viscosity [mPa·s]
298.15 K | 2.496
303.15 K | 2.164
313.15 K | 1.731
318.15 K | 1.586
323.15 K | 1.466
328.15 K | 1.373
338.18 K | 1.223
343.15 K | 1.173
